The source of these data is patent US7214495B2, “Screening method” (Takeda Pharmaceutical Company Limited, priority 2002, dated 2007).

Data set [1] has as its system p44/42 MAP kinase in MIN6 cells. Nature of the data set: MAP kinase activation (western blot) in MIN6 cells. Type of data set: cell-based, mouse. Conditions: PD98059 50 μM during preincubation/incubation; 5 minutes. As to the method:
The medium used was 4.5 g/l of glucose-containing Dulbecco's Modified Eagle Medium (DMEM, Invitrogen, Inc.) supplemented with 15% fetal calf serum (ThermoTrace, Inc.), 5.5 μM 2-mercaptethanol (Invitrogen, Inc.), 20 mM HEPES pH 7.3, 100 U/ml penicillin and 100 μg/ml streptomycin. The mouse pancreatic β cell line MIN6 cells were plated in a 12-well plate at a density of 2×10^5/well and incubated overnight. On the following morning, the medium was exchanged and incubation was continued overnight. The medium was again exchanged on the following morning. After incubation for 3 hours, preincubation was carried out in 22 mM glucose-containing KRBH for an hour. Various fatty acids were dissolved in KRBH (22 mM glucose) at a density of 10 μM followed by incubation for 2.5 minutes (or 5 minutes). MAPK inhibitor (PD98059) was added to KRBH in a concentration of 50 μM during the preincubation/incubation. After lysis/extraction in a sample buffer (TEFCO, Inc.), the cells were separated on SDS-PAGE and analyzed by western blotting using PhosphoPlus p44/42 MAP kinase (Thr202/Tyr204) Antibody Kit (Cell Signaling Technology, Inc.). […] The activation of MAPK occurred by the fatty acids showing the agonist activity in MIN6 as well as in the GPR40-expressed CHO cells. Thus, it was strongly supported that GPR40 would take part in MIN6 stimulation of fatty acids at least in part.
In general terms: Immunoblotting shows a protein as a band on a membrane.

For data set [2], the system named is mouse insulinoma MIN6 cells. Nature of the data set: Insulin secretion from MIN6 cells with free fatty acid-BSA mixture (RIA). Type of data set: cell-based. Conditions: 300 μM to 1000 μM; fatty acid-BSA 4:1; 11 mM glucose; 90 (or 60) minutes. As to the method:
The MIN6 cells were cultured in DMEM (high glucose, Invitrogen) containing 15% FCS (Trace Scientific Ltd.), 55 μM 2-mercaptoethanol, 100 U/ml penicillin and 100 μg/ml streptomycin, unless otherwise indicated. MIN6 cells were plated in a 96-well plate in 10^5 cells/well, followed by incubation at 37° C. for 3 days in a CO2 incubator adjusted to a concentration of 5% CO2. The medium was replaced by RPMI1640 (glucose free, Invitrogen) containing 10% FCS (Trace Scientific Ltd.), 5.5 mM glucose, 100 U/ml penicillin and 100 μg/ml streptomycin, followed by incubation for further 24 hours. After the medium was removed by suction, a solution mixture of free fatty acid-bovine serum albumin (BSA) (in a molar ratio of 4:1) diluted with RPMI1640 (glucose free, Invitrogen) containing 10% FCS (Trace Scientific Ltd.), 11 mM glucose, 100 U/ml penicillin and 100 μg/ml streptomycin was added to the cells, followed by reacting in a CO2 incubator adjusted to a 5% CO2 concentration at 37° C. for 90 minutes (or 60 minutes). After the reaction, the 96-well plate was centrifuged at 1500 rpm for 5 minutes and the culture supernatant was then recovered. The amount of insulin secreted into the culture supernatant was determined by radioimmunoassay (RIA) using the rat insulin RIA system (Amersham Pharmacia).

For a further data set, the target named is T1, human GPR40 (Homo sapiens, UniProt O14842).
T1 construct: The resulting fragment (ca. 1 kb) was introduced into vector pAKKO-111, which was used for transfection of CHO cells; expressed in transfected cells
T1 sequence (O14842 whole entry, the tested form may be a part): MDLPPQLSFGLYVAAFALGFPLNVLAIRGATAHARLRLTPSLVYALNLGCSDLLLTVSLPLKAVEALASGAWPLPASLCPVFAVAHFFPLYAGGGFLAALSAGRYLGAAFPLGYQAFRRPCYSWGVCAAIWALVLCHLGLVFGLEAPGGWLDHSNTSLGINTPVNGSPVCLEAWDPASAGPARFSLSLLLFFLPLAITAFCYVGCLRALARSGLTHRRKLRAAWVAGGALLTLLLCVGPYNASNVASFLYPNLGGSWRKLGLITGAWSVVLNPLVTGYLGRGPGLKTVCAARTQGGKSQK
Nature of the data set: EC50 by FLIPR calcium assay in CHO cells stably expressing human GPR40. Conditions: intracellular calcium, FLIPR, stable CHO line; read-out: EC50 Human GPR40. Format: cell-based. As to the method:
(§1) For determination of EC50 values, the CHO cell lines in which human-, mouse- and rat-derived GPR40 was stably expressed were used. Unless otherwise indicated, these CHO cell lines were incubated in α-MEM medium (Invitrogen) supplemented with 10% fetal calf serum (Invitrogen).
(§2) On the day before assay, the cells incubated to almost confluent stage were rinsed with PBS (Invitrogen), then scraped in 0.05% trypsin-EDTA solution (Invitrogen) and recovered by centrifugal operation. The number of the cells obtained was counted and diluted so as to contain 3×10^5 cells/1 mL of the medium. The dilution was dispensed in a Black welled 96-well plate (Coster) in 100 μL/well, followed by incubation overnight in a CO2 incubator. To the thus prepared CHO cells, various test samples were added and the changes in intracellular calcium level in this case were measured using FLIPR (Molecular Device). In order to determine the changes in the intracellular calcium ion level on FLIPR, the cells were pre-treated by the following procedures.
(§3) First, for the purpose of adding a fluorescent dye Fluo-3 AM (DOJIN) to the cells or washing the cells immediately before the FLIPR assay, an assay buffer was prepared. A solution obtained by adding 20 mL of 1M HEPES (pH 7.4) (DOJIN) to 1000 mL of HBSS (Invitrogen) was prepared (hereinafter HBSS/HEPES solution), to which 10 mL of a solution mixture obtained by dissolving 710 mg of Probenecid (Sigma) in 5 mL of 1N NaOH and further adding 5 mL of HBSS/HEPES solution was added. The resulting solution was used as the assay buffer. Next, 50 μg of Fluo-3AM was dissolved in 21 μL of DMSO (Wako) and an equal volume of 20% Pulronic acid (Molecular Probes) was added to and mixed with the solution. The mixture was then added to 10.6 mL of the assay buffer supplemented with 105 μL of fetal calf serum to prepare a fluorescent dye solution. […], the medium for the CHO cells again plated in a Black welled 96-well plate was removed. Immediately thereafter, the fluorescent dye solution was dispensed in 100 μL each/well and the cells were incubated in a CO2 incubator for an hour so that the fluorescent dye was taken up into the cells. The cells after the incubation was washed with the assay buffer described above and set on FLIPR. […] After the pre-treatment above was made, the changes in intracellular calcium level after the addition of various test samples were measured on FLIPR.
(In general: A change in cytosolic calcium serves as a functional read-out for many receptors and channels.)

In a further data set the target is T2, Mouse GPR40 (Mus musculus, UniProt Q76JU9).
T2 construct: expressed in transfected cells
T2 sequence (Q76JU9 whole entry): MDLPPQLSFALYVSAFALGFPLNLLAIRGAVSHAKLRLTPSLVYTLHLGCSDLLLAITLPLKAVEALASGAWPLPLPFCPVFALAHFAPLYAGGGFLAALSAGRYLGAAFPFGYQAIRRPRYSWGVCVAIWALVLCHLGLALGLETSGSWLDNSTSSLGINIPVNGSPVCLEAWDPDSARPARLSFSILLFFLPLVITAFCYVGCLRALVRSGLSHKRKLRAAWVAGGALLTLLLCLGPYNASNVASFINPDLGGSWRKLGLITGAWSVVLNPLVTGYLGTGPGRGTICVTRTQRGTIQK
The data set can be described thus: EC50 by FLIPR calcium assay in CHO cells stably expressing mouse GPR40. Type of data set: cell-based. Conditions: intracellular calcium, FLIPR, stable CHO line; read-out: EC50 Mouse GPR40. How it is done: as §1, §2, §3

In a further data set the target is T3, Rat GPR40 (Rattus norvegicus, UniProt Q8K3T4).
T3 construct: expressed in transfected cells
T3 sequence (Q8K3T4 whole entry): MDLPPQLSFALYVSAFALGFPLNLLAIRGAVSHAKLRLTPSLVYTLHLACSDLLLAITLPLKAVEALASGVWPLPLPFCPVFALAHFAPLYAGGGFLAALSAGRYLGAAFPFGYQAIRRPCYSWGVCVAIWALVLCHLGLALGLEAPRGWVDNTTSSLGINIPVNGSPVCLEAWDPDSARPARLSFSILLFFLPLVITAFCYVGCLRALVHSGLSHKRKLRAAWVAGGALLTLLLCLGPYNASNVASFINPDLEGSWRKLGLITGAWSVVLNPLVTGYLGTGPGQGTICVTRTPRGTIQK
Nature of the data set: EC50 by FLIPR calcium assay in CHO cells stably expressing rat GPR40. Type of data set: cell-based. The note with it: intracellular calcium, FLIPR, stable CHO line; read-out: EC50 Rat GPR40. As to the method: as §1, §2, §3

In data set [3] the test system is mouse GPR40-GFP fusion protein. The data set can be described thus: Expression of mouse GPR40-GFP fusion protein in CHO cells after siRNA introduction (enzyme immunoassay). Type of data set: cell-based. Conditions: siRNA 2.86 pmols/0.5 μl or 8.57 pmols/1.5 μl, one day. As to the method:
Mouse GPR40-GFP fusion protein-expressed CHO cells prepared by publicly known methods were plated in a 96-well plate at a density of 3×10^4/well, followed by incubation for a day. The siRNA (Dharmacon, Inc.) having various sequences, which was prepared according to the report by Elbasir et al. (Nature 411 (6836), 494–498 (2001)) using HVJ Envelope VECTOR KIT GenomONE™ (Ishihara Sangyo Kaisha, LTD.), was introduced into the cells (in a concentration of 2.86 pmols/0.5 μl or 8.57 pmols/1.5 μl), incubation followed for further one day. The expression level of mouse GPR40-GFP was detected by enzyme immunoassay as shown below. After the culture supernatant was discarded and the cells were washed with HBSS (Invitrogen), the cells were immobilized on 0.01% glutaraldehyde (Wako Pure Chemical) for 5 minutes, followed by blocking with 2% BSA-containing PBS (Takara Shuzo). Anti-GFP monoclonal antibody 3E6 (Nippon Gene) diluted to 500-fold was added to the cells. After incubation at room temperature for 2 hours, the cells were washed and HRP-labeled anti-mouse IgG antibody (ICN) diluted to 500-fold was added thereto followed by incubation at room temperature for 2 hours. After washing, TMB Microwell peroxidase substrate (Funakoshi) was added to the cells. After incubation for 30 minutes, sulfuric acid was added to stop the color-forming reaction and absorbance was measured at 450 nm.

The subject of a further data set is mouse GPR40 mRNA. Nature of the data set: Mouse GPR40 mRNA expression in MIN6 after siRNA introduction. Format: cell-based. Conditions: 2 days after introduction; vs random sequence siRNA. How it is done: MIN6 cells were plated in a 24-well plate and incubated for a day. Based on the method of EXAMPLE 18, m40i103 or Scramble II duplex siRNA, which was a random sequence siRNA, was then introduced using HVJ Envelope VECTOR KIT GenomONE. After incubation for 2 days, the total RNA of the same cells was prepared in a manner similar to EXAMPLE 7, using Isogen (Nippon Gene K. K.), following the manual attached. Using as a primer 100 ng of random hexamer based on 1 μg of the resulting total RNA, cDNA was synthesized using SuperScriptII reverse transcriptase (Invitrogen, Inc.), which was lysed in 40 μl of TE buffer (pH 8.0). The expression levels of mouse GPR40 and mouse GAPDH mRNA were determined by the method described in EXAMPLE 4.

For the molecule `COc1cccc(-c2cc(=O)c3ccccc3o2)c1N` [PD98059], in data set [1], the “effect on fatty acid-induced activation of MAPK in MIN6” value is recorded as “almost suppressed”.
Take `CCCCCCCCCCCCCCCC(=O)O` [Palmitic acid (C16), Palmitic acid]: the “insulin secretion by MIN6 cells” value in data set [2] was “promoted”. The EC50 (as a rule, the concentration at which the effect is half-maximal) on human GPR40 was 6.8 ± 0.5 µM; on Mouse GPR40, 4.6 ± 1.2 µM; on Rat GPR40, 6.6 ± 0.4 µM.
As for “m40i103: mouse GPR40-specific siRNA; sense strand SEQ ID NO: 34, antisense strand SEQ ID NO: 35 (sense CGCCAGUUGUGACAUUCUUNN; antisense NNGCGGUCAACACUGUAAGAA; chemistry not given here; one strand is listed 3' to 5')”, the “expression level of GPR40-GFP (absorbance at 450 nm)” value in data set [3] is reported as “reduction in the expression level”. In the data set with mouse GPR40 mRNA, the “expression of GPR40 mRNA (GPR40/GAPDH) in MIN6” value is “decreased”.
For “m40i256: mouse GPR40-specific siRNA; sense strand SEQ ID NO: 36, antisense strand SEQ ID NO: 37 (sense CUUGUUAGCCAUCCGAGGCNN; antisense NNGAACAATCGGTAGGCTCCG; chemistry not given here; one strand is listed 3' to 5')”, the “expression level of GPR40-GFP (absorbance at 450 nm)” value in data set [3] is reported as “reduction in the expression level”.
